# Assay results taken from US7015215B2, “Pyrrolo[2,1-c][1,4] benzodiazepines compounds and process thereof” (Council of Scientific and Industrial Research, priority 2003, dated 2006).
# Tests used:
# Assay type in all cases: cell-based, human
# SF-295 = experiment: NCI SRB cytotoxicity, CNS SF-295; settings: SF-295, CNS, 48 h
# Method: (§1) Biological Activity: In vitro biological activity studies were carried out at National Cancer Institute (U.S.A.).
# (§2) For each compound, dose response curves for each cell line were measured at a minimum of five concentrations at 10 fold dilutions. A protocol of 48 h continuous drug exposure was used, and a sulforhodamine B (SRB) protein assay was used to estimate cell viability or growth. The concentration causing 50% cell growth inhibition (GI50), total cell growth inhibition (TGI, 0% growth) and 50% cell death (LC50, −50% growth) compared with the control was calculated.
# UACC-62 = experiment: NCI SRB cytotoxicity, Melanoma UACC-62; settings: UACC-62, Melanoma, 48 h
# Method: as §1, §2
# BT-549 = experiment: NCI SRB cytotoxicity, Breast BT-549; settings: BT-549, Breast, 48 h
# Method: as §1, §2
# SK-MEL-5 = experiment: NCI SRB cytotoxicity, Melanoma SK-MEL-5; settings: SK-MEL-5, Melanoma, 48 h
# Method: as §1, §2
# SNB-75 = experiment: NCI SRB cytotoxicity, CNS SNB-75; settings: SNB-75, CNS, 48 h
# Method: as §1, §2
# KM-12 = experiment: NCI SRB cytotoxicity, Colon KM-12; settings: KM-12, Colon, 48 h
# Method: as §1, §2
# K-62 = experiment: NCI SRB cytotoxicity, Leukemia K-62; settings: K-62, Leukemia, 48 h
# Method: as §1, §2
# RXF 393 = experiment: NCI SRB cytotoxicity, Renal RXF 393; settings: RXF 393, Renal, 48 h
# Method: as §2
# NCI-H522 = experiment: NCI SRB cytotoxicity, Non-small-cell lung NCI-H522; settings: 48 h
# Method: as §1, §2
# HT-29 = experiment: NCI SRB cytotoxicity, Colon HT-29; settings: HT-29, Colon, 48 h
# Method: as §1, §2
# MDA-MB-435 = experiment: NCI SRB cytotoxicity, Breast MDA-MB-435; settings: MDA-MB-435, Breast, 48 h
# Method: as §1, §2
# U251 = experiment: NCI SRB cytotoxicity, CNS U251; settings: 48 h
# Method: as §1, §2
# PC-3 = experiment: NCI SRB cytotoxicity, Prostate PC-3; settings: PC-3, Prostate, 48 h
# Method: as §2
# HCC-2998 = experiment: NCI SRB cytotoxicity, Colon HCC-2998; settings: HCC-2998, Colon, 48 h
# Method: as §1, §2
# OVCAR-4 = experiment: NCI SRB cytotoxicity, Ovarian OVCAR-4; settings: OVCAR-4, Ovarian, 48 h
# Method: as §1, §2
# OVCAR-8 = experiment: NCI SRB cytotoxicity, Ovarian OVCAR-8; settings: OVCAR-8, Ovarian, 48 h
# Method: as §1, §2
# HCT-116 = experiment: NCI SRB cytotoxicity, Colon HCT-116; settings: HCT-116, Colon, 48 h
# Method: as §1, §2
# SK-MEL-28 = experiment: NCI SRB cytotoxicity, Melanoma SK-MEL-28; settings: SK-MEL-28, Melanoma, 48 h
# Method: as §1, §2
# TK-10 = experiment: NCI SRB cytotoxicity, Renal TK-10; settings: TK-10, Renal, 48 h
# Method: as §1, §2
# EKVX = experiment: NCI SRB cytotoxicity, Non-small-cell lung EKVX; settings: 48 h
# Method: as §1, §2
# HOP-62 = experiment: NCI SRB cytotoxicity, Non-small-cell lung HOP-62; settings: HOP-62, Non-small-cell lung, 48 h
# Method: as §1, §2
# MOLT-4 = experiment: NCI SRB cytotoxicity, Leukemia MOLT-4; settings: MOLT-4, Leukemia, 48 h
# Method: as §1, §2
# COLO 205 = experiment: NCI SRB cytotoxicity, Colon COLO 205; settings: COLO 205, Colon, 48 h
# Method: as §1, §2
# T-47D = experiment: NCI SRB cytotoxicity, Breast T-47D; settings: 48 h
# Method: as §1, §2
# CAKI-1 = experiment: NCI SRB cytotoxicity, Renal CAKI-1; settings: CAKI-1, Renal, 48 h
# Method: as §1, §2
# SN12C = experiment: NCI SRB cytotoxicity, Renal SN12C; settings: 48 h
# Method: as §1, §2
# OVCAR-5 = experiment: NCI SRB cytotoxicity, Ovarian OVCAR-5; settings: OVCAR-5, Ovarian, 48 h
# Method: as §1, §2
# UO-31 = experiment: NCI SRB cytotoxicity, Renal UO-31; settings: UO-31, Renal, 48 h
# Method: as §2
# SW-620 = experiment: NCI SRB cytotoxicity, Colon SW-620; settings: SW-620, Colon, 48 h
# Method: as §1, §2
# HS578T = experiment: NCI SRB cytotoxicity, Breast HS578T; settings: 48 h
# Method: as §1, §2
# SK-MEL-2 = experiment: NCI SRB cytotoxicity, Melanoma SK-MEL-2; settings: SK-MEL-2, Melanoma, 48 h
# Method: as §1, §2
# UACC-257 = experiment: NCI SRB cytotoxicity, Melanoma UACC-257; settings: UACC-257, Melanoma, 48 h
# Method: as §1, §2
# 786-0 = experiment: NCI SRB cytotoxicity, Renal 786-0; settings: 786-0, Renal, 48 h
# Method: as §1, §2
# A498 = experiment: NCI SRB cytotoxicity, Renal A498; settings: 48 h
# Method: as §1, §2
# NCI-H23 = experiment: NCI SRB cytotoxicity, Non-small-cell lung NCI-H23; settings: 48 h
# Method: as §1, §2
# ACHN = experiment: NCI SRB cytotoxicity, Renal ACHN; settings: 48 h
# Method: as §1, §2
# SR = experiment: NCI SRB cytotoxicity, Leukemia SR; settings: 48 h
# Method: as §1, §2
smiles,measurement,setting,value
"COc1cc2c(cc1OCCCN1CCN(CCCOc3cc4c(cc3OC)C(=O)N3CCC[C@H]3C=N4)CC1)N=C[C@@H]1CCCN1C2=O [Compound VIb, 1,1′-{[(bispropane-1,N-diyl)piperazine]dioxy}bis[(11aS)-7-methoxy-1,2,3,11a-tetrahydro-5H-pyrrolo[2,1-c][1,4]benzodiazepin-5-one]]",Log GI 50,SF-295,−4.99 mol/L
same,Log LC 50,SF-295,−4.00 mol/L
same,Log GI 50,UACC-62,−4.68 mol/L
same,Log LC 50,UACC-62,−4.00 mol/L
same,Log GI 50,BT-549,−5.77 mol/L
same,Log LC 50,BT-549,−4.00 mol/L
same,Log GI 50,SK-MEL-5,−5.66 mol/L
same,Log LC 50,SK-MEL-5,−4.50 mol/L
same,Log GI 50,SNB-75,−4.61 mol/L
same,Log LC 50,SNB-75,−4.00 mol/L
same,Log GI 50,KM-12,−4.64 mol/L
same,Log LC 50,KM-12,−4.00 mol/L
same,Log GI 50,K-62,−5.76 mol/L
same,Log LC 50,K-62,−4.00 mol/L
same,Log GI 50,RXF 393,−5.68 mol/L
same,Log LC 50,RXF 393,−4.09 mol/L
same,Log GI 50,NCI-H522,−6.40 mol/L
same,Log LC 50,NCI-H522,−4.00 mol/L
same,Log GI 50,HT-29,−4.46 mol/L
same,Log LC 50,HT-29,−4.00 mol/L
same,Log GI 50,MDA-MB-435,−5.37 mol/L
same,Log LC 50,MDA-MB-435,−4.09 mol/L
same,Log GI 50,U251,−5.41 mol/L
same,Log LC 50,U251,−4.00 mol/L
same,Log GI 50,PC-3,−5.53 mol/L
same,Log LC 50,PC-3,−4.00 mol/L
same,Log GI 50,HCC-2998,−4.73 mol/L
same,Log LC 50,HCC-2998,−4.04 mol/L
same,Log GI 50,OVCAR-4,−4.13 mol/L
same,Log LC 50,OVCAR-4,−4.00 mol/L
same,Log GI 50,OVCAR-8,−4.48 mol/L
same,Log LC 50,OVCAR-8,−4.00 mol/L
same,Log GI 50,HCT-116,−4.92 mol/L
same,Log LC 50,HCT-116,−4.00 mol/L
same,Log GI 50,SK-MEL-28,−4.48 mol/L
same,Log LC 50,SK-MEL-28,−4.00 mol/L
same,Log GI 50,TK-10,−5.10 mol/L
same,Log LC 50,TK-10,−4.00 mol/L
same,Log GI 50,EKVX,−4.47 mol/L
same,Log LC 50,EKVX,−4.00 mol/L
same,Log GI 50,HOP-62,−5.14 mol/L
same,Log LC 50,HOP-62,−4.00 mol/L
same,Log GI 50,MOLT-4,−6.50 mol/L
same,Log LC 50,MOLT-4,−4.08 mol/L
same,Log GI 50,COLO 205,−5.34 mol/L
same,Log LC 50,COLO 205,−4.00 mol/L
same,Log GI 50,T-47D,−5.16 mol/L
same,Log LC 50,T-47D,−4.00 mol/L
same,Log GI 50,CAKI-1,−4.65 mol/L
same,Log LC 50,CAKI-1,−4.00 mol/L
same,Log GI 50,SN12C,−4.44 mol/L
same,Log LC 50,SN12C,−4.00 mol/L
same,Log GI 50,OVCAR-5,−5.06 mol/L
same,Log LC 50,OVCAR-5,−4.00 mol/L
same,Log GI 50,UO-31,−4.27 mol/L
same,Log LC 50,UO-31,−4.00 mol/L
same,Log GI 50,SW-620,−6.23 mol/L
same,Log LC 50,SW-620,−4.00 mol/L
same,Log GI 50,HS578T,−6.13 mol/L
same,Log LC 50,HS578T,−4.00 mol/L
same,Log GI 50,SK-MEL-2,−4.82 mol/L
same,Log LC 50,SK-MEL-2,−4.00 mol/L
same,Log GI 50,UACC-257,−4.45 mol/L
same,Log LC 50,UACC-257,−4.00 mol/L
same,Log GI 50,786-0,−5.30 mol/L
same,Log LC 50,786-0,−4.00 mol/L
same,Log GI 50,A498,−5.73 mol/L
same,Log LC 50,A498,−4.00 mol/L
same,Log GI 50,NCI-H23,−4.89 mol/L
same,Log LC 50,NCI-H23,−4.00 mol/L
same,Log GI 50,ACHN,−4.47 mol/L
same,Log LC 50,ACHN,−4.00 mol/L
COc1cc2c(cc1OCCCCCN1CCN(CCCCCOc3cc4c(cc3OC)C(=O)N3CCC[C@H]3C=N4)CC1)N=C[C@@H]1CCCN1C2=O [Compound VId],Log GI 50,SF-295,−5.30 mol/L
same,Log LC 50,SF-295,−4.00 mol/L
same,Log GI 50,UACC-62,−5.64 mol/L
same,Log LC 50,UACC-62,−4.00 mol/L
same,Log GI 50,BT-549,−5.31 mol/L
same,Log LC 50,BT-549,−4.00 mol/L
same,Log GI 50,SK-MEL-5,−5.48 mol/L
same,Log LC 50,SK-MEL-5,−4.00 mol/L
same,Log GI 50,SNB-75,−4.51 mol/L
same,Log LC 50,SNB-75,−4.00 mol/L
same,Log GI 50,KM-12,−5.25 mol/L
same,Log LC 50,KM-12,−4.00 mol/L
same,Log GI 50,K-62,−5.46 mol/L
same,Log LC 50,K-62,−4.20 mol/L
same,Log GI 50,RXF 393,−8.00 mol/L
same,Log LC 50,RXF 393,−5.09 mol/L
same,Log GI 50,NCI-H522,−5.47 mol/L
same,Log LC 50,NCI-H522,−4.00 mol/L
same,Log GI 50,HT-29,−5.02 mol/L
same,Log LC 50,HT-29,−4.00 mol/L
same,Log GI 50,MDA-MB-435,−5.37 mol/L
same,Log LC 50,MDA-MB-435,−4.00 mol/L
same,Log GI 50,U251,−5.47 mol/L
same,Log LC 50,U251,−4.00 mol/L
same,Log GI 50,PC-3,−5.41 mol/L
same,Log LC 50,PC-3,−4.00 mol/L
same,Log GI 50,HCC-2998,−5.69 mol/L
same,Log LC 50,HCC-2998,−4.29 mol/L
same,Log GI 50,OVCAR-4,−5.38 mol/L
same,Log LC 50,OVCAR-4,−4.00 mol/L
same,Log GI 50,OVCAR-8,−4.67 mol/L
same,Log LC 50,OVCAR-8,−4.00 mol/L
same,Log GI 50,HCT-116,−4.00 mol/L
same,Log LC 50,HCT-116,−4.00 mol/L
same,Log GI 50,SK-MEL-28,−4.71 mol/L
same,Log LC 50,SK-MEL-28,−4.00 mol/L
same,Log LC 50,TK-10,−4.00 mol/L
same,Log GI 50,EKVX,−4.33 mol/L
same,Log LC 50,EKVX,−4.00 mol/L
same,Log GI 50,HOP-62,−4.00 mol/L
same,Log LC 50,HOP-62,−4.00 mol/L
same,Log GI 50,MOLT-4,−4.79 mol/L
same,Log LC 50,MOLT-4,−4.00 mol/L
same,Log GI 50,COLO 205,−5.49 mol/L
same,Log LC 50,COLO 205,−4.00 mol/L
same,Log GI 50,T-47D,−5.00 mol/L
same,Log LC 50,T-47D,−4.00 mol/L
same,Log GI 50,CAKI-1,−5.77 mol/L
same,Log LC 50,CAKI-1,−4.00 mol/L
same,Log GI 50,SN12C,−5.66 mol/L
same,Log LC 50,SN12C,−4.00 mol/L
same,Log GI 50,OVCAR-5,−5.33 mol/L
same,Log LC 50,OVCAR-5,−4.00 mol/L
same,Log GI 50,UO-31,−4.00 mol/L
same,Log LC 50,UO-31,−4.00 mol/L
same,Log GI 50,SR,−5.37 mol/L
same,Log LC 50,SR,−4.00 mol/L
same,Log GI 50,SW-620,−5.49 mol/L
same,Log LC 50,SW-620,−4.00 mol/L
same,Log GI 50,HS578T,−5.12 mol/L
same,Log LC 50,HS578T,−4.00 mol/L
same,Log GI 50,UACC-257,−4.75 mol/L
same,Log LC 50,UACC-257,−4.00 mol/L
same,Log GI 50,786-0,−5.61 mol/L
same,Log LC 50,786-0,−4.00 mol/L
same,Log GI 50,A498,−5.00 mol/L
same,Log LC 50,A498,−4.00 mol/L
same,Log GI 50,NCI-H23,−5.18 mol/L
same,Log LC 50,NCI-H23,−4.00 mol/L
same,Log GI 50,ACHN,−4.63 mol/L
same,Log LC 50,ACHN,−4.00 mol/L
